Measured values reported in US20230295728A1, “METHODS FOR DIAGNOSING AND TREATING AUTISM” (CENTRE NATIONAL DE LA RECHERCHE SCIENTIFIQUE (CNRS), priority 2020, published 2023).
“Also recorded” adds a separate entry of the source.

What was measured:
B6D2 and Balb c males = tested on: B6D2 and Balb c males
Procedure: The control group received the same volume (0.1 ml) of 0.9% saline buffer. At 14 days post birth, all offspring (8-12 pups from each litter) were injected (intraperitoneally) with VPA at […] or with saline buffer as a control. […] The F1 to F2 generations were obtained following treatment with the 300 to 500 mg/kg VPA doses. The F1 generation derived from VPA-injected F0 fathers is referred to as VPA-F1, while that from saline-injected fathers is identified as the control. Adult VPA-F1 males were bred with normal females.
VPA is known to perturb brain formation during early development^22 and to induce characteristic traits of ASD pathology^23,24. […] We treated the animals after birth rather than treating pregnant females as in previous studies^23,24 to avoid the multiple effects on embryonic development generated via the mothers during pregnancy as well as the effects on germ cells. […] In contrast, the injection of pregnant females often leads to an unpredicted arrest of embryonic development and mortality of the mothers either during pregnancy or after the birth of their progenies.
The spermatogonial stem cells that will continuously divide and differentiate throughout the life of the male are present, leaving open the possibility that some changes in transcript levels may be transmitted to the next generation.

Balb c mice [1] = experiment: Novel object recognition test; type: in vivo, mouse
Source text: The time spent with familiar versus novel objects highlighted a common characteristic of the test group versus the controls. Specifically, it indicated differences in the interest in and recognition of objects. NOR (novel object recognition) is a well-established test in a variety of animal models with multiple protocols. In general, it involves two trials of cognition evaluation based on the spontaneous exploratory conduct of a mouse to measure recognition memory. In the first trial, we used (first-day acquisition) animals that were exposed to two similar objects (small orange boxes) in a chamber for 5 minutes. During the second trial (second-day retention) mice were again exposed to two dissimilar objects for 5 minutes, including one familiar object from the first trial and one new object (blue box). Object recognition was measured (data not shown), according to the difference in the time spent with the familiar object versus the new object.

Balb c mice [2] = experiment: Social interaction test (three chambers); type: in vivo, mouse
Procedure: To determine whether these interactions varied between the groups of mice, they were filmed for 5 minutes. There are many different ways to follow social interaction. Here, we present the results in a simple way based on conditions in a cage separated into three sections. The mice being tested were placed in the center of the cage and were filmed to calculate the time that they spent close to the empty compartment or the compartment occupied by another mouse. The three chambers were separated by square doors in the two inner walls connecting to the center area. Briefly, the test mouse was introduced in the center to initiate habituation for 5 minutes while blocking access to the side compartments. The first test was conducted by placing an unfamiliar mouse inside an empty wire cage in one of the side chambers to measure the social interaction of the subject mouse without direct social contact. On the other side, there was an empty wire cage. Each test was performed for 10 minutes (data not shown), and the floor surfaces were wiped with 70% ethanol between trials. The accumulated time spent in each compartment and the sociability or social preference indices were measured to quantify the social behavior of the mice.

Balb c mice [3] = experiment: Tail suspension test; type: in vivo, mouse
Procedure: Adult mice (2 months old) (Balb c strain) weighing 25-27 g on the test day. The apparatus used for the tail test consisted of two filter covers each and enabled three mice to be tested simultaneously. Each mouse was suspended by the tail from a hook connected to the strain gauge, to which they were attached with adhesive tape with a length of 18 cm. The duration of each trial was 360 seconds. The tail suspension test was recorded using a SONY HDR-CX240E video recorder. […] An immobility posture indicates the abandonment of struggling and, thus, depression. Periods of agitation and immobility are reported (data not shown).

Balb c mice [4] = experiment: Glass marble burying test; type: in vivo, mouse
Procedure: According to the described protocols, newly filled bedding cages were prepared with 20 marbles spaced on the bedding surface. Mice were individually caged. After 30 minutes, each mouse was returned to its home cage, and the buried marbles were counted (data not shown). Marbles that were not buried were not included in the analysis.

Balb c mice [5] = experiment: Open field and Morris water tests; type: in vivo, mouse; settings: 500 mg/kg VPA group (data not shown)
[6] = tested on: six-microRNAs (miR-19a-3p, miR-361-5p, miR-3613-3p, miR-150-5p, miR-126-3p, miR-499a-5p); experiment: miRNA analysis of the mouse models (q-PCR of blood, sperm, hippocampus RNA); type: in vivo; settings: VPA-treated mice (500 mg/kg)
Procedure: Routine qPCR for miR detection and validation^41 was performed with the miScript PCR control set (catalog number 218380; Qiagen, Germany). The miScript™ miRNA PCR Array Human Serum & Plasma 384HC (Cat No: 331223) was used in this study. The Human Serum & Plasma 384HC miScript miRNA PCR Array profiles the expression of 372 miRNAs) that are detectable in serum and plasma using the miScript PCR system. SNORD61, SNORD68, SNORD72, SNORD95, SNORD96A, RNU6-2, miRTC, miRTC, and PPC were used as controls. The data were normalized using the 2^−ΔΔct method.
Total RNA was prepared from mouse tissues (blood, hippocampus, sperm) according to published procedures^42. Sperm cells were isolated from the epididymis, and floating sperm were recovered by successive washing (PBS) and centrifugation at 3000 rpm. Briefly, RNAs were extracted from all tissues (hippocampus, blood and sperm cells) via a standard protocol. Qiazol Lysis Buffer (Cat. No: 79306; Qiagen, Texas, USA) was used in accordance with the manufacturer's instructions. The Qiazol-extracted aqueous phase was ethanol precipitated, followed by washing twice with 70% ethanol. To remove the remaining DNA, the PCR samples were treated with DNase according to the manufacturer's instructions.

SMILES: CCCC(CCC)C(=O)O [VPA, valproic acid]
- sudden mortality (B6D2 and Balb c males; 500 mg/kg i.p., males): without sudden mortality
- mortality / lethality at high doses (B6D2 and Balb c males; 600-700 mg/kg, one i.p. injection at 14 days post birth, both mouse lines): dramatic lethality; also recorded: sudden dramatic mortality; also recorded: lethal
- breeding behaviour, fertility, testes (B6D2 and Balb c males; mouse, in vivo, 500 mg/kg): a few males became aggressive toward females during breeding, showed reduced fertility and smaller testes
- time spent with familiar versus novel objects (Balb c mice [1]; 400 mg/kg, only for familiar objects): Some effect was detectable
- time spent with familiar versus novel objects (Balb c mice [1]; 500 mg/kg, treated males): lost interest and spent the same amount of time with the two objects but spent less time overall with both objects
- overall activity in social interaction tests (Balb c mice [2]; 500 mg/kg VPA group): decrease in overall activity
- time spent close to chamber with mouse versus empty chamber (Balb c mice [2]; 500 mg/kg, treated males): showed less interest and spent an even smaller amount of time close to the empty cage
- immobility / struggle-related behaviour (Balb c mice [3]; 500 mg/kg, F0 treated males): a significant change that indicated abandonment and depression was observed
- immobility / struggle-related behaviour (Balb c mice [3]; F1 generation of VPA-treated fathers, compared to F0): the reverse effect was observed
- marbles buried in 30 minutes (Balb c mice [4]; 500 mg/kg VPA F1 generation): the same behavior as in the founders, with significantly less activity
- marbles buried in 30 minutes (Balb c mice [4]; 500 mg/kg, treated males): markedly less interest in burying marbles
- overall activity (Balb c mice [5]): decrease in the overall activity as well by half
- expression of the six-microRNAs [6]: decreases not only in the blood but also in the sperm and hippocampus
